Drawing on patent publication US10233188B2, “CDK2/4/6 inhibitors” (priority 2016, dated 2019), this text covers Ki for 23 molecules.

One test concerns the target CDK2/Cyclin E1 (Homo sapiens (Human), UniProt P24941). The test can be described thus: biochemical. To be noted: CDK2_Ki (nM), phosphorylated CDK2/Cyclin E1, 150 μM ATP, Morrison tight-binding fit.
Another test addresses CDK6/Cyclin D1 (Homo sapiens (Human), UniProt Q00534). The test can be described thus: biochemical. The note with it: CDK6_Ki (nM), non-phosphorylated CDK6/Cyclin D1, 2 mM ATP, Morrison fit.

Sequence of CDK6/Cyclin D1 (Q00534 whole entry): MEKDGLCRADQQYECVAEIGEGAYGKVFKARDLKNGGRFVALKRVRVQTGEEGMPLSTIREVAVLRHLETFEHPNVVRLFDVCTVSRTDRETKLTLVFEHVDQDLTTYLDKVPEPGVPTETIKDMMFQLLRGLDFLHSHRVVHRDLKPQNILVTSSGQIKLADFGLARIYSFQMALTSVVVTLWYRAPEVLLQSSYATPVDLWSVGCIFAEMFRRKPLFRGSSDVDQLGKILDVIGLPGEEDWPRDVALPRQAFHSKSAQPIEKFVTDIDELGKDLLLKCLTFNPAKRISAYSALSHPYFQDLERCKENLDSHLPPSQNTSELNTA
Sequence of CDK6/Cyclin D1 (P24385 whole entry partner): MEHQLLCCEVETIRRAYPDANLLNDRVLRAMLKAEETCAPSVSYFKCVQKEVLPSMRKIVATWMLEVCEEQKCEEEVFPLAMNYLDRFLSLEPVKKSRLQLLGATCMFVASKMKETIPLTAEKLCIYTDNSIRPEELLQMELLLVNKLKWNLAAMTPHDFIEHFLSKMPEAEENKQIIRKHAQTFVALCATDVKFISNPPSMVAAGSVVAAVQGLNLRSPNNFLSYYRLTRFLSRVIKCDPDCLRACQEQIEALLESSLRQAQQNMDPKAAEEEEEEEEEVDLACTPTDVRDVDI
Method for CDK2/Cyclin E1: The assay was initiated with the addition of ATP, following a fifteen minutes pre-incubation of enzyme and inhibitor at room temperature in the reaction mixture. The reaction was stopped after 45 minutes at room temperature by the addition of 50 μL of 80 mM EDTA, pH 7.5.

With `Cc1cc2cnc(NC3CCN(S(C)(=O)=O)CC3)nc2n(C2CCCCC(O)C2)c1=O` (single isomer, unassigned; isomer a) [Example 223, 8-(3-hydroxycycloheptyl)-6-methyl-2-{[1-(methylsulfonyl)piperidin-4-yl]amino}pyrido[2,3-d]pyrimidin-7(8H)-one-Isomer A], the inhibition constant Ki – broadly, the equilibrium dissociation constant of an inhibitor or competing ligand from its target – at CDK2/Cyclin E1 is 57.1 nM; at CDK6/Cyclin D1, 21 nM.
`Cc1cc2cnc(NC3CCN(S(=O)(=O)C4CC4)CC3)nc2n([C@H]2CCC[C@]2(C)O)c1=O` (single isomer, unassigned) [Example 113, (+)-2-{[1-(cyclopropylsulfonyl)piperidin-4-yl]amino}-8-[(1R*,2R*)-2-hydroxy-2-methylcyclopentyl]-6-methylpyrido[2,3-d]pyrimidin-7(8H)-one]: the values for the Ki at CDK2/Cyclin E1 and at CDK6/Cyclin D1 were 1.99 nM and 4.15 nM, respectively.
Consider `Cc1cc2cnc(NC3CCN(S(=O)(=O)C4CC4)CC3)nc2n([C@@H]2CCC[C@@]2(C)O)c1=O` (single isomer, unassigned) [Example 112, (−)-2-{[1-(cyclopropylsulfonyl)piperidin-4-yl]amino}-8-[(1R*,2R*)-2-hydroxy-2-methylcyclopentyl]-6-methylpyrido[2,3-d]pyrimidin-7(8H)-one], for which the inhibitory constant (Ki) at CDK2/Cyclin E1 came to 0.12 nM; at CDK6/Cyclin D1, 1.24 nM.
The corresponding values for `CS(=O)(=O)N1CCC(Nc2ncc3ccc(=O)n([C@H]4CCC[C@H](O)C4)c3n2)CC1` [Example 211, 8-[(1S,3S)-3-hydroxycyclohexyl]-2-{[1-(methylsulfonyl)piperidin-4-yl]amino}pyrido[2,3-d]pyrimidin-7(8H)-one] are 2.19 nM and 2.22 nM.
The corresponding values for `Cc1cc2cnc(NC3CCN(S(C)(=O)=O)CC3)nc2n([C@@H]2CCC[C@@H]2C)c1=O` [Example 37, 6-methyl-8-[(1R,2S)-2-methylcyclopentyl]-2-{[1-(methylsulfonyl)piperidin-4-yl]amino}pyrido[2,3-d]pyrimidin-7(8H)-one] are 0.06 nM and 0.06 nM.
The corresponding values for `Cc1cc2cnc(NC3CCN(S(=O)(=O)C4CCS(=O)(=O)C4)CC3)nc2n([C@H]2CCC[C@]2(C)O)c1=O` (single isomer, unassigned; isomer b) [Example 107, (+)-2-[(1-{[(3ξ)-1,1-dioxidotetrahydrothiophen-3-yl]sulfonyl}piperidin-4-yl)amino]-8-[(1R*,2R*)-2-hydroxy-2-methylcyclopentyl]-6-methylpyrido[2,3-d]pyrimidin-7(8H)-one-Isomer B] are 9.91 nM and 184 nM.
For the molecule `CS(=O)(=O)N1CC[C@H](Nc2ncc3cc(CCO)c(=O)n(C4CCCC4)c3n2)[C@@H](F)C1` (single isomer, unassigned) [Example 156, (−)-8-cyclopentyl-2-{[(3S*,4S*)-3-fluoro-1-(methylsulfonyl)piperidin-4-yl]amino}-6-(2-hydroxyethyl)pyrido[2,3-d]pyrimidin-7(8H)-one], the Ki at CDK2/Cyclin E1 turned out to be 1.4 nM; on CDK6/Cyclin D1, 1.94 nM.
The corresponding values for `C[C@H]1[C@@H](O)CC[C@@H]1n1c(=O)c(C(F)F)cc2cnc(NC3CCN(S(C)(=O)=O)CC3)nc21` (single isomer, unassigned) [Example 205, (+)-6-(difluoromethyl)-8-[(1 R*,2S*,3R*)-3-hydroxy-2-methylcyclopentyl]-2-{[1-(methylsulfonyl)piperidin-4-yl]amino}pyrido[2,3-d]pyrimidin-7(8H)-one] are 5.22 nM and 1.27 nM.
The corresponding values for `CS(=O)(=O)N1CCC(Nc2ncc3cc(CC(=O)O)c(=O)n(C4CCCC4)c3n2)CC1` [Example 147, (8-cyclopentyl-2-{[1-(methylsulfonyl)piperidin-4-yl]amino}-7-oxo-7,8-dihydropyrido[2,3-d]pyrimidin-6-yl)acetic acid] are 1.57 nM and 0.45 nM.
The matching figures for `C[C@]1(O)CCC[C@@H]1n1c(=O)ccc2cnc(NC3CCN(S(=O)(=O)c4nccs4)CC3)nc21` (single isomer, unassigned) [Example 79, (+)-8-[(1R*,2R*)-2-hydroxy-2-methylcyclopentyl]-2-{[1-(1,3-thiazol-2-ylsulfonyl)piperidin-4-yl]amino}pyrido[2,3-d]pyrimidin-7(8H)-one]: 7.32 nM and 9.59 nM.
With `CCS(=O)(=O)N1CCC(Nc2ncc3cc(C)c(=O)n([C@H]4CCC[C@]4(C)O)c3n2)CC1` (single isomer, unassigned) [Example 111, (+)-2-{[1-(ethylsulfonyl)piperidin-4-yl]amino}-8-[(1R*,2R*)-2-hydroxy-2-methylcyclopentyl]-6-methylpyrido[2,3-d]pyrimidin-7(8H)-one], the figures for the Ki on CDK2/Cyclin E1 and on CDK6/Cyclin D1 were 2.14 nM and 4.9 nM, respectively.
The corresponding values for `C[C@H]1[C@H](O)CC[C@H]1n1c(=O)ccc2cnc(NC3CCN(S(C)(=O)=O)CC3)nc21` (single isomer, unassigned) [Example 210, (−)-8-[(1R*,2R*,3R*)-3-hydroxy-2-methylcyclopentyl]-2-{[1-(methylsulfonyl)piperidin-4-yl]amino}pyrido[2,3-d]pyrimidin-7(8H)-one] are 5.36 nM and 3.15 nM.
As to `COC(C)(C)CNS(=O)(=O)N1CCC(Nc2ncc3cc(C)c(=O)n([C@@H]4CCC[C@@]4(C)O)c3n2)CC1` (single isomer, unassigned) [Example 98, (−)-4-({8-[(1R*,2R*)-2-hydroxy-2-methylcyclopentyl]-6-methyl-7-oxo-7,8-dihydropyrido[2,3-d]pyrimidin-2-yl}amino)-N-(2-methoxy-2-methylpropyl)piperidine-1-sulfonamide], the figures for the Ki at CDK2/Cyclin E1 and on CDK6/Cyclin D1 were 0.33 nM and 0.74 nM, respectively.
Consider `CC1(C)CC(Nc2ncc3cc(CCO)c(=O)n(C4CCCC4)c3n2)CCN1S(C)(=O)=O` (single isomer, unassigned; (+)) [Example 162, (+)-8-cyclopentyl-2-{[2,2-dimethyl-1-(methylsulfonyl)piperidin-4-yl]amino}-6-(2-hydroxyethyl)pyrido[2,3-d]pyrimidin-7(8H)-one], for which the Ki worked out at 3.92 nM on CDK2/Cyclin E1 and 12.3 nM on CDK6/Cyclin D1.
Take `C[C@H]1CCC[C@H]1n1c(=O)c(CC(N)=O)cc2cnc(NC3CCN(S(C)(=O)=O)CC3)nc21` [Example 47, 2-(8-[(1R,2S)-2-methylcyclopentyl]-2-{[1-(methylsulfonyl)piperidin-4-yl]amino}-7-oxo-7,8-dihydropyrido[2,3-d]pyrimidin-6-yl)acetamide]: the results for the Ki at CDK2/Cyclin E1 and on CDK6/Cyclin D1 were 0.27 nM and 1.09 nM, respectively.
With `Cc1cc2cnc(NC3CCN(S(=O)(=O)C4CCS(=O)(=O)C4)CC3)nc2n([C@@H]2CCC[C@@]2(C)O)c1=O` (single isomer, unassigned; isomer d) [Example 109, (−)-2-[(1-{[(3ξ)-1,1-dioxidotetrahydrothiophen-3-yl]sulfonyl}piperidin-4-yl)amino]-8-[(1R*,2R*)-2-hydroxy-2-methylcyclopentyl]-6-methylpyrido[2,3-d]pyrimidin-7(8H)-one-Isomer D], the Ki at CDK2/Cyclin E1 is 0.14 nM; at CDK6/Cyclin D1, 0.19 nM.
The corresponding values for `CS(=O)(=O)N1CCC(Nc2ncc3cc(C(F)(F)F)c(=O)n(C4CCCC4)c3n2)CC1` [Example 148, 8-cyclopentyl-2-{[1-(methylsulfonyl)piperidin-4-yl]amino}-6-(trifluoromethyl)pyrido[2,3-d]pyrimidin-7(8H)-one] are 4.18 nM and 0.26 nM.
The corresponding values for `CS(=O)(=O)N1CCC(Nc2ncc3cc(C(F)F)c(=O)n([C@@H]4CC[C@@H](O)C4)c3n2)CC1` (single isomer, unassigned) [Example 133, (−)-6-(difluoromethyl)-8-[(1R*,3R*)-3-hydroxycyclopentyl]-2-{[1-(methylsulfonyl)piperidin-4-yl]amino}pyrido[2,3-d]pyrimidin-7(8H)-one] are 2.37 nM and 0.94 nM.
In the case of `CNS(=O)(=O)N1CCC(Nc2ncc3cc(C)c(=O)n([C@@H]4CCC[C@@]4(C)O)c3n2)CC1` (single isomer, unassigned) [Example 94, (−)-4-({8-[(1R*,2R*)-2-hydroxy-2-methylcyclopentyl]-6-methyl-7-oxo-7,8-dihydropyrido[2,3-d]pyrimidin-2-yl}amino)-N-methylpiperidine-1-sulfonamide], the values for the Ki at CDK2/Cyclin E1 and on CDK6/Cyclin D1 were 0.09 nM and 0.33 nM, respectively.
Consider `Cc1cc2cnc(NC3CCN(S(C)(=O)=O)CC3)nc2n([C@@H]2CCC[C@H]2O)c1=O` [Example 173, 8-[(1R,2R)-2-hydroxycyclopentyl]-6-methyl-2-{[1-(methylsulfonyl)piperidin-4-yl]amino}pyrido[2,3-d]pyrimidin-7(8H)-one], for which the Ki at CDK2/Cyclin E1 was 2.95 nM; on CDK6/Cyclin D1 it was 3.52 nM.
The corresponding values for `CC[C@]1(O)CCC[C@@H]1n1c(=O)ccc2cnc(NC3CCN(S(C)(=O)=O)CC3)nc21` (single isomer, unassigned) [Example 194, (+)-(8-[(1R*,2R*)-2-ethyl-2-hydroxycyclopentyl]-2-{[1-(methylsulfonyl)piperidin-4-yl]amino}pyrido[2,3-d]pyrimidin-7(8H)-one] are 4.01 nM and 5.37 nM.
For `C[C@@H]1[C@H](O)CC[C@H]1n1c(=O)ccc2cnc(NC3CCN(S(C)(=O)=O)CC3)nc21` (single isomer, unassigned) [Example 201, (−)-8-[(1R*,2S*,3R*)-3-hydroxy-2-methylcyclopentyl]-2-{[1-(methylsulfonyl)piperidin-4-yl]amino}pyrido[2,3-d]pyrimidin-7(8H)-one], the Ki came to 0.12 nM on CDK2/Cyclin E1 and 0.85 nM at CDK6/Cyclin D1.
For `Cc1cc2cnc(NC3CCN(S(=O)(=O)CC(F)(F)F)CC3)nc2n([C@@H]2CCC[C@@]2(C)O)c1=O` (single isomer, unassigned) [Example 118, (−)-8-[(1R*,2R*)-2-hydroxy-2-methylcyclopentyl]-6-methyl-2-({1-[(2,2,2-trifluoroethyl)sulfonyl]piperidin-4-yl}amino)pyrido[2,3-d]pyrimidin-7(8H)-one], the Ki amounted to 0.34 nM at CDK2/Cyclin E1 and 4.36 nM on CDK6/Cyclin D1.
